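Exposure lasted 48 hours, with cells grown in 96-well plates and compounds tested at five concentrations. GI50 = concentration required for 50% inhibition of growth.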 Activity calls are given as the source filed them. Cut-off read from the data, not from the text of the source: active = GI50 up to about 1.1 µM and inactive = higher.
Tests used:
Experiment in all cases: NCI tumour cell line growth inhibition, 48 h
[1] = system: BT-549
[2] = system: OVCAR-5
[3] = system: LOX IMVI
[4] = system: TK-10
[5] = system: HT-29
[6] = system: HCT-116
[7] = system: RPMI-8226
[8] = system: IGROV-1
[9] = system: MDA-N
[10] = system: COLO 205
[11] = system: HCT-15
[12] = system: MDA-MB-231
[13] = system: OVCAR-8
[14] = system: CAKI-1
[15] = system: MCF7
[16] = system: NCI-H226
[17] = system: OVCAR-4

Measured: GI50

CC12C(=O)OC(=O)C1(C)C1C=CC2O1 (centres undefined)
inactive: [1] > 100 µM | [2] > 100 µM | [3] > 100 µM | [4] 78.7 µM | [5] > 100 µM | [6] > 100 µM | [7] > 100 µM | [8] > 100 µM | [9] > 100 µM | [10] > 100 µM | [12] 42.6 µM | [13] > 100 µM | [14] 54.7 µM | [15] > 100 µM | [16] 21.7 µM
> 100 µM: [11]

O=C1NC2NC3NC(=O)NC3NC2N1 (centres undefined)
inactive: [1] > 100 µM | [2] > 100 µM | [3] > 100 µM | [5] > 100 µM | [6] > 100 µM | [7] > 100 µM | [8] > 100 µM | [9] > 100 µM | [10] > 100 µM | [12] > 100 µM | [13] > 100 µM | [14] > 100 µM | [15] > 100 µM | [16] > 100 µM

O=C1CC(C(COCc2ccccc2)OCc2ccccc2)CC(=O)N1 (centres undefined)
inactive: [1] 45 µM | [2] > 100 µM | [3] > 100 µM | [4] > 100 µM | [5] > 100 µM | [6] > 100 µM | [7] > 100 µM | [8] > 100 µM | [9] > 100 µM | [12] > 100 µM | [13] > 100 µM | [14] > 100 µM | [15] > 100 µM | [16] > 100 µM
> 100 µM: [11]

CC(C)n1c(=O)n(-c2ccccc2)n(C(C)(C)C)c1=O
> 100 µM: [11]
inactive: [1] > 100 µM | [17] > 100 µM | [2] > 100 µM | [3] > 100 µM | [4] > 100 µM | [5] > 100 µM | [6] > 100 µM | [8] > 100 µM | [9] > 100 µM | [10] > 100 µM | [12] > 100 µM | [13] > 100 µM | [14] > 100 µM | [15] > 100 µM | [16] > 100 µM

Cc1ccc(-c2cc(=O)c(=O)[nH][nH]2)cc1
> 100 µM: [11]
inactive: [1] > 100 µM | [17] > 100 µM | [2] > 100 µM | [3] > 100 µM | [4] > 100 µM | [5] > 100 µM | [6] > 100 µM | [8] 45.1 µM | [9] > 100 µM | [10] > 100 µM | [12] > 100 µM | [13] > 100 µM | [14] > 100 µM | [15] > 100 µM | [16] > 100 µM

Cc1ccc(/C=C/C(=O)c2cc(CN(C)C)c(O)c(CN(C)C)c2)cc1
inactive: [1] 18.3 µM | [2] 66.8 µM | [3] 6.65 µM | [4] 28.8 µM | [5] 13.7 µM | [6] 15.5 µM | [7] 13.2 µM | [8] 27.4 µM | [9] 15.2 µM | [10] 10.6 µM | [12] 13.8 µM | [13] 21.3 µM | [14] 20.7 µM | [15] 17.3 µM | [16] 22.5 µM
14.4 µM: [11]

O=C(COc1ccc(OCC(=O)NNC2=NC(c3cc(F)c(Cl)cc3Cl)CS2)c(Cl)c1)NNC1=NC(c2cc(F)c(Cl)cc2Cl)CS1 (centres undefined)
active: [3] 1.04 µM
16.7 µM: [11]
inactive: [1] 24.1 µM | [17] 14.7 µM | [2] 36.7 µM | [4] 25.8 µM | [5] 25.6 µM | [6] 31.5 µM | [7] 20 µM | [8] 20.1 µM | [9] 28.4 µM | [10] 34.2 µM | [12] 20 µM | [13] 20.8 µM | [15] 14 µM | [16] 19.1 µM

From ChEMBL document CHEMBL1201862, “PubChem BioAssay data set” (2004)
